Columns and labels:
Format in all cases: cell-based, human
[1] = system: Leigh syndrome (GM03672) fibroblasts; assay: RSL3 cytoprotection assay, Leigh fibroblasts; conditions: RSL3, 4 hours, FIG. 9
Description: (§1) Patient fibroblasts were acquired from Coriell Institute for Medical Research (Camden, NJ, USA). GM03672 is an untransformed fibroblast cell line from a Leigh syndrome patient carrying an unknown mutation. GM08402 is an untransformed fibroblast from an apparently healthy individual. Cells were cultured at 37° C. at 5% CO2 in Eagle's Minimum Essential Medium (MEM, Corning), which was supplemented with Earle's salts and non-essential amino acids, 15% qualified fetal bovine serum, and 1% penicillin/streptomycin ([…]) to yield “Complete MEM.”
(§2) To initiate the RSL3 cytoprotection experiment, Healthy (GM08402) and Leigh syndrome (GM03672) fibroblasts were resuspended in Complete MEM. Cells were seeded at 10,000 cells per well in a clear, tissue cultured-treated, 96-well plate and incubated at 37° C. overnight. Following the incubation, supernatant was manually aspirated, taking care not to disrupt cells. […]. Luminescence units were quantified by GEN5 software on a BioTek SYNERGY neo2 plate reader (LUM filter).
(§3) RSL3 is an inhibitor of the enzyme glutathione peroxidase 4 (GPX4), which decreases lipid peroxides. RSL3 inhibition of GPX4 induces ferroptosis through iron-dependent accumulation of lipid ROS. In this assay, Healthy or Leigh fibroblasts were treated for 4 hours with RSL3 to induce ferroptosis or left untreated. Endogenous ATP levels were measured as an indicator of cellular viability using a commercially available kit (CellTiter-Glo® 2.0 Cell Viability Assay (Promega)).
(§4) […]. […] Briefly, ferroptosis was induced with 1 μM RSL3 in healthy fibroblast cells and 375 nM RSL3 in fibroblasts from a patient with Leigh syndrome.
(§5) A preliminary experiment was performed to determine the effect of RSL3 injury on the fibroblasts of a healthy individual (cell line: GM08402) and the fibroblasts of a patient diagnosed with Leigh syndrome (cell line: GM03672).

15-lipoxygenase (15-LO) [2] = assay: 15(S)-HETE ELISA following RSL3 treatment, healthy fibroblasts; conditions: 700 nM RSL3, 1 μM compound, FIG. 10; for inhibition of 15-lipoxygenase (15(S)-HETE in supernatant): 24 hours
Description: (§6) Samples for the 15(S)-HETE ELISA were generated by the RSL3 cytoprotection assay described above. Healthy or Leigh fibroblasts were resuspended in assay medium, seeded at 200,000 cells per well in a clear, tissue culture-treated, 24-well plate. Cells were incubated at 37° C. for 24 hours. Supernatant was aspirated from each well following the incubation.
(§7) Fibroblasts from both a healthy individual and a patient diagnosed with Leigh syndrome were examined (but not all compounds were examined in each cell type). Activation of ferroptosis has been implicated as a driver of epilepsy, which is commonly associated with Leigh syndrome. […] Kahn-Kirby et al. PLOS One. […] As a key regulator of ferroptosis, 15-LO serves as a rational therapeutic target in Leigh syndrome.

[3] = system: Healthy (GM08402) fibroblasts; assay: RSL3 cytoprotection assay, healthy fibroblasts; conditions: 1 μM RSL3, 4 hours, FIG. 8
Description: as §1, §2, §3, §4, §5

15-lipoxygenase (15-LO) [4] = assay: 15(S)-HETE ELISA following RSL3 treatment, Leigh fibroblasts; conditions: 700 nM RSL3, 1 μM compound, FIG. 11
Description: as §6, §7

[5] = system: Healthy (GM08402) fibroblasts; assay: Erastin cytoprotection assay, healthy fibroblasts; conditions: 2 μM erastin, 24 hours, FIG. 12
Description: (§8) Briefly, Healthy (GM08402) or Leigh (GM03672) fibroblasts were resuspended in assay medium, seeded at 10,000 cells per well in a clear, tissue cultured-treated, 96-well plate, and incubated at 37° C. overnight. Following the incubation, supernatant was manually aspirated from wells, taking care not to disrupt cells. Fibroblasts were co-treated in a final volume of 100 μL with 2 μM erastin (Millipore Corp., Cat #), 250 μM ferric ammonium citrate (FAC), 50 µM ascorbic acid (AA), and a titration of one of each of Compounds 1 to 4 or Vatiquinone ranging from 10 to 1000 nM. Following another 24-hour incubation at 37° C., cell viability was measured using the CellTiter-Glo Luminescent Cell Viability Kit (ProMega) per Manufacturer's instructions. Luminescence units were quantified by GEN5 software on a BioTek SYNERGY neo2 plate reader (LUM filter).
(§9) Briefly, erastin, like RSL3, is known to induce ferroptosis. […] Erastin was incubated with cell fibroblasts for 24 hours to induce ferroptosis. Cells were co-treated with each of Compounds 1 to 4, or Vatiquinone as the test articles. Test articles were administered at a range of concentrations to derive a curve. Cell viability was determined using a commercially available kit that measures ATP production. […] An increase in cell viability as determined by the assay is considered to be protective against ferroptosis.

[6] = system: Leigh (GM03672) fibroblasts; assay: Erastin cytoprotection assay, Leigh fibroblasts; conditions: 2 μM erastin, 24 hours, FIG. 13
Description: as §8, §9

| SMILES | anti-ferroptosis properties compared among test articles [1] | inhibition of 15-lipoxygenase (15(S)-HETE in supernatant) (15-lipoxygenase (15-LO) [2]) | 15-lipoxygenase inhibition compared among test articles (15-lipoxygenase (15-LO) [2]) | anti-ferroptosis properties compared among test articles [3] | 15-LO inhibition compared among test articles (15-lipoxygenase (15-LO) [4]) | protective effect compared among test articles [5] | protective effect compared among test articles [6] |
| --- | --- | --- | --- | --- | --- | --- | --- |
| CC1=C(C)C(=O)C(CC[C@@](C)(O)COCCC[Si](C)(C)C)=C(C)C1=O [Compound 3] | superior to Compounds 1, 4 and Vatiquinone | inhibited 15-lipoxygenase | superior to Compounds 2, 4 and Vatiquinone | superior to Compounds 1, 4 and Vatiquinone | roughly equivalent protective effect | superior in their protective effect | superior in their protective effect |
| CC1=C(C)C(=O)C(CC[C@](C)(O)CCCCCCCCC(F)(F)F)=C(C)C1=O [Compound 4] | roughly equivalent | inhibited 15-lipoxygenase | roughly equivalent protective effect | roughly equivalent | roughly equivalent protective effect | about equally protective | about equally protective |

— patent US20250144049A1, “METHODS, COMPOSITIONS, AND USES RELATED TO THE TREATMENT AND PREVENTION OF LEIGH SYNDROME” (Stealth BioTherapeutics Inc., priority 2023, published 2025)
